Reference: patent US11311576B2, “Methods of use for CAR T cells” (Seattle Children's Hospital, priority 2018, dated 2022)

Assays:
MDA-MB-231 tumors = test: CAR-T therapy with EC17 fixed dose or dose de-escalation in mice bearing MDA-MB-231 tumors; type: in vivo
From the text: The effect of EC17 dose de-escalation was investigated on the anti-tumor activity and the toxicity (body weight changes) of CAR-T therapy. Two different anti-fluorescein scFv were used for the CAR constructions (FIG. 1). The first construct of CAR contains the following domains: antiFL(FITC-E2)scFv-IgG4 hinge (CH2 (L235D, N297Q)-CH3)-CD28 TM-4-1BB-CD3z-T2A-EGFRt. The second construct of CAR contains the following domains: antiFL(FITC-4M5.3)scFv-IgG4 hinge (CH2 (L235D, N297Q)-CH3)-CD28 TM-4-1BB-CD3z-T2A-EGFRt. The nucleic acid sequence and amino acid sequence of the CAR of each construct are shown as SEQ ID NOS:1 to 4. Human T cells were isolated, activated and transduced with a lentiviral vector carrying the appropriate CAR gene. CD4+ T cells with the CAR-modification and CD8+ T cells with the CAR-modification were isolated and cultured separately in vitro for about 7 days. CD4+ CAR-T cells and CD8+ CAR-T cells were mixed at a 1:1 ratio before i.v. administration for animal studies.
The second construct 4M5.3-CAR (antiFL(FITC-4M5.3) scFv-IgG4 hinge (CH2 (L235D, N297Q)-CH3)-CD28 TM-4-1BB-CD3z-T2A-EGFRt) was also evaluated. Mice bearing MDA-MB-231 tumors (150-250 mm^3) were used for in vivo studies to evaluate 4M5.3-CAR-T cells. […]

HOS-FRα tumor = test: CRS toxicity and sodium fluorescein rescue in HOS-FRα tumor-bearing mice; type: in vivo; conditions: intravenous ~95 mg/kg on day 13, plasma 6 hours later, 35 million total CAR-T cells
Experimental: All animal care and use were performed according to NIH guidelines and in compliance with protocols approved by the Purdue University Animal Use and Care Committee. Female 4 to 5-week-old NOD/SCID gamma (NSG™) mice (stock number: 005557) were purchased from The Jackson Laboratory (Bar Harbor, Me.). Unless specifically indicated, all animals were maintained on a FA-deficient diet (TestDiet, St. Louis, Mo.) upon arrival and throughout the study. To establish subcutaneous xenografts, MDA-MB-231 and HOS-FRα were implanted in the right flank region at 2.5×10^6 and 1×10^6 cells per animal, respectively. For intravenous xenografts, THP1-FRb cells were inoculated at 5×10^6 cells per animal. Subcutaneous tumors were measured 2-3 times per week with a caliper and calculated using the ellipsoidal formula […]. […] All animal doses (CAR-T cells, EC17, sodium fluorescein) were given intravenously.
Depending on the CAR-T cell dose and how EC17 is administered, tumor-bearing mice receiving FITC-specific CAR-T cells can experience severe CRS and varying degrees of body weight loss. […] On the days immediately following each EC17 dose, animals were scored and rescue agents such as sodium fluorescein, folic acid and leucovorin were used to mitigate CRS toxicity. […]

O=C([O-])c1ccccc1-c1c2ccc(=O)cc-2oc2cc([O-])ccc12.[Na+].[Na+] [sodium fluorescein]
antitumor activity after NaFL rescue (MDA-MB-231 tumors; E2-CAR-T 10 and 20 million cells, EC17 500 nmol/kg SIW, NaFL 6 umol/kg): antitumor activity was maintained
antitumor activity after NaFL rescue (MDA-MB-231 tumors; E2-CAR-T 30 million cells with EC17 dose de-escalation): antitumor activity is maintained
CAR-T cell derived human cytokines after rescue (HOS-FRα tumor): acted very quickly to reduce CAR-T cell derived human cytokines
